Results published in US6864259B2, “Antibacterial agents” (Warner-Lambert Company, priority 2001, dated 2005).
In brackets after ≈: the same amount, converted by molar mass. Where a name gives a salt, the structure may show the parent alone. Read-outs that look alike come from different tables or passages of the source.

Tests used:
[1] = system: N. gonorrhoeae 2637; test: Test C cross resistance antibacterial assay (MIC); format: cell-based, Neisseria gonorrhoeae
[2] = system: E. coli MC 4100; test: Test A antibacterial assay, standard microtitration (MIC); format: cell-based; conditions: Escherichia coli, MC4100; Gram negative; read-out: Minimum Inhibitory Concentrations, E. coli MC 4100
Experimental: (§1) The compounds of the present invention were tested against an assortment of Gram-negative and Gram-positive organisms using standard microtitration techniques (Cohen, et al., Antimicrob. Agents Chemother., 1985;28:766; Heifetz, et al., Antimicrob. Agents Chemother., 1974;6:124). […]

[3] = system: E. faecalis RB1; test: as above; format: cell-based; conditions: Enterococcus faecalis, Gram positive, read-out: Minimum Inhibitory Concentrations, E. faecalis RB1
Experimental: as §1

[4] = system: S. pyogenes C203; test: as above; format: cell-based; conditions: Streptococcus pyogenes, Gram positive, read-out: Minimum Inhibitory Concentrations, S. pyogenes C203
Experimental: as §1

[5] = system: E. coli B90; test: as above; format: cell-based; conditions: Escherichia coli, Gram negative, read-out: Minimum Inhibitory Concentrations, E. coli B90
Experimental: as §1

[6] = system: E. coli Tol C; test: as above; format: cell-based; conditions: Escherichia coli, read-out: Minimum Inhibitory Concentrations, E. coli Tol C
Experimental: as §1

[7] = system: S. aureus 29213; test: as above; format: cell-based; conditions: Staphylococcus aureus, Gram positive, read-out: Minimum Inhibitory Concentrations, S. aureus 29213
Experimental: as §1

[8] = system: S. aureus UC-76; test: Test C cross resistance antibacterial assay (MIC); format: cell-based; conditions: Staphylococcus aureus
Experimental: (§2) The compounds of the present invention were tested against an assortment of ciprofloxacin resistant E. coli and S. aureus organisms described below using standard microtitration techniques (Cohen, et al., Antimicrob. Agents Chemother., 1985;28:766; Heifetz, et al., Antimicrob. Agents Chemother., 1974;6:124).

[9] = system: S. aureus 2552; test: Test C cross resistance antibacterial assay (MIC); format: cell-based
Experimental: as §2

[10] = system: S. pyogenes; test: In vivo median protective dose in mice given lethal systemic infections; conditions: lethal systemic infection
[11] = system: N. gonorrhoeae 2709; test: Test C cross resistance antibacterial assay (MIC); format: cell-based; conditions: Neisseria gonorrhoeae, 2709, read-out: Minimum Inhibitory Concentrations, N. g. 2709
[12] = molecular target: E. coli gyrase (Escherichia coli, UniProt P0AES4+P0AES6); test: biochemical; conditions: supercoiling of relaxed pBR322, 30 minutes at 37° C.
Chain of E. coli gyrase (P0AES4 whole entry, one chain of several): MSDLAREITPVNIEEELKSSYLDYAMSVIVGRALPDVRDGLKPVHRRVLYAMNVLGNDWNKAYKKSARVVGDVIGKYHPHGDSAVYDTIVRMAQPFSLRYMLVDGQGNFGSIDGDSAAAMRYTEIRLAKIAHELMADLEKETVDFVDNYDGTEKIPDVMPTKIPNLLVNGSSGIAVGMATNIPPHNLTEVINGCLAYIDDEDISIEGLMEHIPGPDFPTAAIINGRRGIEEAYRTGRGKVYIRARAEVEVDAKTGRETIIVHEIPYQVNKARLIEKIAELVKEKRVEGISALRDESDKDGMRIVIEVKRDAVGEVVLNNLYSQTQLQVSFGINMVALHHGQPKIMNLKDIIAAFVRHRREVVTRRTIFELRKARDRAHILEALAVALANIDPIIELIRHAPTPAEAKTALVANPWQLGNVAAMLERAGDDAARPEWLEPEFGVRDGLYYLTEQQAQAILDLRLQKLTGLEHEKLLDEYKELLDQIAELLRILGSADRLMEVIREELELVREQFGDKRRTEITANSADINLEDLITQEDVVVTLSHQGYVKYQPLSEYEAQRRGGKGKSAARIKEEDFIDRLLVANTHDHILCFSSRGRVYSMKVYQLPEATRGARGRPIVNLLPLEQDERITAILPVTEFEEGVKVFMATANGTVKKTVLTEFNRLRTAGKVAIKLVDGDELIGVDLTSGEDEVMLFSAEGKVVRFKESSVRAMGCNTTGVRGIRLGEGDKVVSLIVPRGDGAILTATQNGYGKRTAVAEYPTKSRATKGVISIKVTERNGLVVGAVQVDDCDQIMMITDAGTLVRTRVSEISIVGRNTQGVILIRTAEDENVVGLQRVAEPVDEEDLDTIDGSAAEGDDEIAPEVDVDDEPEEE

[13] = UC76, wild type sensitive strain, read-out: Minimum Inhibitory Concentrations, S. aureus UC-76
[14] = Staphylococcus aureus, 2552, upregulated norA pump, read-out: Minimum Inhibitory Concentrations, S. aureus 2552
[15] = Neisseria gonorrhoeae, 2637, derivative of MS11, parent strain, read-out: Minimum Inhibitory Concentrations, N. g. 2637

Compound | MIC ([1]; Neisseria gonorrhoeae, 2637, read-out: Minimum Inhibitory Concentrations, N. g. 2637) [µg/mL] | MIC [2] [µg/mL] | MIC [3] [µg/mL] | MIC [4] [µg/mL] | MIC [5] [µg/mL] | MIC [6] [µg/mL] | MIC [7] [µg/mL] | MIC ([8]; UC76, read-out: Minimum Inhibitory Concentrations, S. aureus UC-76) [µg/mL] | MIC ([9]; Staphylococcus aureus, 2552, read-out: Minimum Inhibitory Concentrations, S. aureus 2552) [µg/mL] | In Vivo Median Protective Dose (PD50) in Mice (PO) [10] [mg/kg] | MIC [11] [µg/mL] | IC50 [12] [nM] | MIC [8, 13] [µg/mL] | MIC [9, 14] [µg/mL] | melting point [°C] | MIC [1, 15] [µg/mL]
O=C(O)c1cn(C2CC2)c2cc(N3CCNCC3)c(F)cc2c1=O [Ciprofloxacin, ciprofloxacin, reference compound] | 0.002 (≈ 0.00604 µM) | < 0.02 | 0.5 (≈ 1.51 µM) | 0.5 (≈ 1.51 µM) | < 0.01 | < 0.01 | 0.5 (≈ 1.51 µM) | 0.13 (≈ 0.392 µM) | 2 (≈ 6.04 µM) | >100 | 0.06 (≈ 0.181 µM) |  |  |  |  | 
Cc1c(N2CCC(C(C)O)C2)c(F)cn2c(=O)n(N)c(=O)c(C3CC3)c12 (stereo not shown) [Compound 4h] |  | 16 (≈ 44.1 µM) | 2 (≈ 5.52 µM) | 2 (≈ 5.52 µM) | 0.13 (≈ 0.359 µM) | < 0.06 | 0.5 (≈ 1.38 µM) |  |  |  |  | 1200 | 0.5 (≈ 1.38 µM) | 1 (≈ 2.76 µM) | 172 to 174 | 
Cc1c(N2CCC(N)C2)c(F)cn2c(=O)n(N)c(=O)c(C3CC3)c12.Cl (stereo not shown) |  |  |  |  |  |  |  |  |  |  |  |  |  |  | 246 to 248 | 
Cc1c(N2CCCC2)c(F)cn2c(=O)n(N)c(=O)c(C3CC3)c12 [Compound 4g, 2-Amino-4-cyclopropyl-7-fluoro-5-methyl-6-pyrrolidin-1-yl-pyrido[1,2-c]pyrimidine-1,3-dione] |  | 16 (≈ 50.3 µM) | 2 (≈ 6.28 µM) | 1 (≈ 3.14 µM) | 0.25 (≈ 0.785 µM) | < 0.06 | 1 (≈ 3.14 µM) |  |  |  |  | 1700 |  |  | 202 to 204 | 
Cc1c(N2CC[C@@H]([C@H](C)N)C2)c(F)cn2c(=O)n(N)c(=O)c(C3CC3)c12.Cl [Compound 5b, 2-Amino-6-[(R)-3-((S)-1-aminoethyl)pyrrolidin-1-yl]-4-cyclopropyl-7-fluoro-5-methyl-pyrido[1,2-c]pyrimidine-1,3-dione, hydrochloride] |  | 0.5 | 0.13 | 0.008 | 0.06 | 0.03 | 0.25 |  |  |  | 0.25 | 500 | 0.06 | 0.25 | 218 to 220 | 0.13
Cc1c(N2CC(C)C(C(C)N)C2)c(F)cn2c(=O)n(N)c(=O)c(C3CC3)c12.Cl (stereo not shown) |  |  |  |  |  |  |  |  |  |  |  |  |  |  | 238 to 240 | 
Cc1c(N2CC[C@@H]([C@@H](C)N)C2)c(F)cn2c(=O)n(N)c(=O)c(C3CC3)c12.Cl |  |  |  |  |  |  |  |  |  |  |  |  |  |  | 218 to 221 | 
Cc1c(N2C[C@H](CN)[C@H](F)C2)c(F)cn2c(=O)n(N)c(=O)c(C3CC3)c12 (racemic) [Compound 4j, 2-Amino-6-((3S,4S) and (3R,4R)-3-aminomethyl-4-fluoropyrrolidin-1-yl)-4-cyclopropyl-7-fluoro-5-methylpyrido[1,2-c]pyrimidine-1,3-dione] |  | 2 (≈ 5.47 µM) | 0.5 (≈ 1.37 µM) | 0.03 (≈ 0.0821 µM) | 0.25 (≈ 0.684 µM) | 0.13 (≈ 0.356 µM) |  |  |  |  |  | 1500 |  |  |  | 
Cc1c(N2CC[C@@H](C3(N)CC3)C2)c(F)cn2c(=O)n(N)c(=O)c(C3CC3)c12 [Compound 4i, 2-Amino-6-[(R)-3-(1-aminocyclopropyl)pyrrolidin-1-yl]-4-cyclopropyl-7-fluoro-5-methylpyrido[1,2-c]pyrimidine-1,3-dione] |  | 0.5 (≈ 1.34 µM) | 0.06 (≈ 0.161 µM) | 0.015 (≈ 0.0402 µM) | 0.03 (≈ 0.0803 µM) | 0.015 (≈ 0.0402 µM) | 0.06 (≈ 0.161 µM) |  |  | 2.1 | 0.13 (≈ 0.348 µM) | 640 | 0.06 (≈ 0.161 µM) | 0.06 (≈ 0.161 µM) |  | 0.03 (≈ 0.0803 µM)
Cc1c(N2CC(C(C)N)C(C)(C)C2)c(F)cn2c(=O)n(N)c(=O)c(C3CC3)c12 (stereo not shown) [Compound 5c, 2-Amino-6-[4-(1-amino-ethyl)-3,3-dimethylpyrrolidin-1-yl]-4-cyclopropropyl-7-fluoro-5-methyl-pyrido[1,2-c]pyrimidine-1,3-dione, hydrochloride] |  | 16 | 2 | 0.5 | 2 | 0.5 | 2 |  |  |  |  | 700 |  |  |  | 
CN[C@@H](C)[C@@H]1CCN(c2c(F)cn3c(=O)n(N)c(=O)c(C4CC4)c3c2C)C1 [Compound 4f, 2-Amino-4-cyclopropyl-7-fluoro-5-methyl-6-[3-(1-methylaminoethyl)pyrrolidin-1-yl]pyrido[1,2-c]pyrimidine-1,3-dione] |  | 2 (≈ 5.33 µM) | 0.06 (≈ 0.16 µM) | 0.015 (≈ 0.04 µM) | 0.13 (≈ 0.346 µM) | 0.03 (≈ 0.0799 µM) | 0.25 (≈ 0.666 µM) |  |  | 1.2 | 0.5 (≈ 1.33 µM) | 1000 | 0.06 (≈ 0.16 µM) | 0.5 (≈ 1.33 µM) |  | 0.25 (≈ 0.666 µM)
Cc1c(N2CC(C(C)N)C(C)(C)C2)c(F)cn2c(=O)n(N)c(=O)c(C3CC3)c12 (stereo not shown) (as salt: hydrochloride) [Compound 5c, 2-Amino-6-[4-(1-amino-ethyl)-3,3-dimethylpyrrolidin-1-yl]-4-cyclopropropyl-7-fluoro-5-methyl-pyrido[1,2-c]pyrimidine-1,3-dione, hydrochloride] |  |  |  |  |  |  |  |  |  |  |  |  |  |  | 238 to 240 | 
